Columns and labels:
Assay type in all cases: in vivo
[1] = tested on: broadleaf weeds and sedges; assay: small plot test in Arkansas, weedy rice plot (Example 7); conditions: 12 days after application
Excerpt: (§1) The chemical rates in pounds/acre were:
(§2) The following observations were made 12 days after application.

Sprangletop = assay: as above; conditions: propanil applied alone, all rates (5, 4, 3 pounds/acre); 12 days after application; 1 to 6 inch Sprangletop
Excerpt: as §1, §2

Barnyard grass = assay: commercial field application by air in Arkansas, half a weedy rice field (Example 8); conditions: only propanil (Super Wham) at 4 pounds; 7 days after application
[2] = tested on: barnyard grass and Sprangletop (two grass species); assay: small plot test in Arkansas, weedy rice plot (Example 7); conditions: cyhalofop alone, high labeled rate 0.279 pounds/acre; 12 days after application
Excerpt: as §1, §2

[3] = tested on: broadleaf weeds and sedges; assay: small plot test in Arkansas, weedy rice plot (Example 1); conditions: Clincher SF alone, 15 fluid ounces/acre (0.279 pounds ai/acre)
Excerpt: (§3) Note that the label recommended rate for Clincher® (cyhalofop) SF for controlling grasses in the 2-3 leaf stage is 13.5 fluid ounces/acre (0.251 pounds cyhalofop/acre).

grasses = assay: as above; conditions: Clincher SF alone, 15 fluid ounces/acre (0.279 pounds ai/acre); 2-3 leaf barnyard grass
Excerpt: as §3

| SMILES | broadleaf and sedge control ([1]; all rates of propanil applied (5, 4, 3 pounds/acre)) | Sprangletop control (Sprangletop) | barnyard grass control (Barnyard grass) | controlling broadleaf weeds and sedges ([1]; cyhalofop alone, high labeled rate 0.279 pounds/acre) | grass control [2] | control of the broadleaf weeds and sedges present at the time of application [3] | control of the grasses (grasses) |
| --- | --- | --- | --- | --- | --- | --- | --- |
| CCC(=O)Nc1ccc(Cl)c(Cl)c1 [propanil] | excellent broadleaf and sedge control | lack of Sprangletop control | poor barnyard grass control | – | – | – | – |
| C[C@@H](Oc1ccc(Oc2ccc(C#N)cc2F)cc1)C(=O)O [cyhalofop] | – | – | – | weakness in controlling broadleaf weeds and sedges | excellent grass control | 0% | controlled the grasses |
